≈ marks a conversion by molar mass, not a printed value. Like-named read-outs stand apart in the source and are kept apart here. Ends that are not written are not given here.
What was measured:
[1] = tested on: Candida strains; assay: MIC, broth microdilution, range stated over several Candida strains; type: cell-based, Candida spp.
Procedure: (§1) C. albicans strains SC5314 and ATCC 90028, C. krusei ATCC 6258 and C. parapsilosis ATCC 22019 were used in the study. The strains were stored at −80°C in nutrient broth supplemented with 2.0% glycerol stock. Prior to experimentation, each strain was streaked for single colonies on Sabouraud Dextrose (SDA) agar plates and incubated overnight at 37°C.
(§2) Antifungal activity of the designed peptides was determined according to a standardized broth microdilution method (Clinical and Laboratory Standards Institute (CLSI) document M27-A2). Briefly, the yeast colonies from 24- hour-old cultures of Candida species were picked and resuspended in 5 mL of sterile 0.145 mol/L saline and adjusted to cell density of 1 × 10^6 to 5 × 10^6 cells/ml. The yeast stock suspension was then diluted to obtain a starting inoculum of 5.0 × 10^2 to 2.5 × 10^3 cells/ml. […] The drugs were dissolved in DMSO and prepared to a stock concentration of 25 mg/L and 50 mg/L, respectively. […] 100 μL of standardized yeast suspension was then added to each well. Plates were incubated for 48 hours at 37°C. The minimum inhibitory concentration (MIC) was defined as the lowest concentration that inhibited 90% growth of Candida species. The MICs were determined three times and each time in duplicate.

[2] = tested on: Candida albicans SC 5314; assay: MIC, broth microdilution (CLSI M27-A2); type: cell-based; details: for MIC: Candida albicans, SC5314, C. albicans SC 5314, RPMI 1640-MOPS, 48 h, 37°C, lowest concentration inhibiting 90% growth, three times in duplicate, read-out: Minimum Inhibitory Concentration (MIC); for Minimum Inhibitory Concentration (MIC): SC 5314, 48 h
Procedure: as §1, §2

[3] = tested on: Candida parapsilosis ATCC 22019; assay: MIC, broth microdilution (CLSI M27-A2); type: cell-based; details: for MIC: Lodderomyces parapsilosis, ATCC22019, C. parapsilosis ATCC 22019, RPMI 1640-MOPS, 48 h, 37°C, lowest concentration inhibiting 90% growth, three times in duplicate, read-out: Minimum Inhibitory Concentration (MIC); for Minimum Inhibitory Concentration (MIC): ATCC 22019, 48 h
Procedure: as §1, §2

[4] = tested on: Candida krusei ATCC 6258; assay: MIC, broth microdilution (CLSI M27-A2); type: cell-based; details: for MIC: Pichia kudriavzevii, ATCC6258, C. krusei ATCC 6258, RPMI 1640-MOPS, 48 h, 37°C, lowest concentration inhibiting 90% growth, three times in duplicate, read-out: Minimum Inhibitory Concentration (MIC); for Minimum Inhibitory Concentration (MIC): ATCC 6258, 48 h
Procedure: as §1, §2

[5] = tested on: Candida albicans ATCC 90028; assay: MIC, broth microdilution (CLSI M27-A2); type: cell-based; details: for MIC: Candida albicans, ATCC90028, C. albicans ATCC 90028, RPMI 1640-MOPS, 48 h, 37°C, lowest concentration inhibiting 90% growth, three times in duplicate, read-out: Minimum Inhibitory Concentration (MIC); for Minimum Inhibitory Concentration (MIC): ATCC 90028, 48 h
Procedure: as §1, §2

[6] = tested on: C. albicans SC5314; assay: Time killing assay; type: cell-based, Candida albicans
Procedure: A fungal suspension was adjusted to a 0.5 McFarland turbidity standard with cell density of 1 × 10^6 to 5 × 10^6 cells/ml. 100 μL of adjusted yeast suspension was exposed to 900 μL of RPMI medium containing peptide, yielding a starting inoculum of approximately 10^5 cells/ml. The solutions were incubated at 37°C with agitation. At the predetermined time interval of 0, 1, 2, 4 and 6 hours, 10 μL or 30 μL of the samples were removed, serially diluted with phosphate-buffered saline (PBS) and plated on SDA plates to allow colony counts after 24 hours of incubation. Controls for yeast growth and antifungal agents were also performed. The lower limit of accurate and reproducible quantitation was 100 CFU/ml. Results were obtained from three independent experiments.

[7] = tested on: C. albicans SC5314 biofilms; assay: Biofilm reduction assay (XTT); type: cell-based, Candida albicans; details: minimum concentration giving 50% reduction of viability of 24 h-old biofilm, 24 h treatment, 1-4× MIC tested
Procedure: Biofilms of C. albicans were formed on commercially available pre-sterilized, polystyrene, flat bottomed 96 well microtitre plates as described by Jin et al with modification. Firstly, a standardized yeast suspension (10^7 cells/ml) of C. albicans SC5314 was prepared by suspending colonies from 24-hours old culture in RPMI 1640 medium and adjusted to an optical density of 0.38–0.39 at 520 nm. 100 μL of yeast suspension was dispensed into each well of a microtitre plate using a multichannel pipette and the plates were incubated in a shaking incubator at 37°C with 75 rpm for 90 minutes to allow adherence of yeast on the surface of each well. After the adhesion phase, the non-adherent cells were removed and each well was washed twice with 150 μL PBS. 100 μL of RPMI 1640 medium was transferred to each washed well and the plates were incubated at 37°C in a shaking incubator at 75 rpm for 24 hours to allow biofilm formation. Following biofilm phase, the medium was aspirated and each well was washed twice gently with 200 μL PBS to remove non-adherent cells. Residual PBS was removed by inverting the plates over an absorbent paper before addition of peptides. […] Antifungal agent-free wells and biofilm-free wells were included as positive and negative controls. After treatment with peptides, the medium was removed and each well was washed twice with 200 μL PBS. The biofilm formation was quantified by using XTT reduction assay as described below. Each experiment was repeated three times in duplicate.
XTT reduction assay was performed according to the method adapted from Jin et al.[44] Briefly, XTT (Sigma) was dissolved to a concentration of 1 mg/ml using sterile PBS. XTT solution was then filter-sterilized using a 0.22 μm-pore-size filter and kept at −70°C prior to use. 0.4 mM menadione solution was prepared by dissolving menadione (Sigma) with acetone. The menadione solution was filter-sterilized and kept at −70°C before use. Prior to each assay, XTT solution was thawed and mixed with menadione solution at a volume ratio of 20:1. After washing, a total volume of 200 μL of XTT-menadione mixture (158 μL of PBS, 40 μL of XTT and 2 μL of menadione) was added to each prewashed biofilm and control wells. The plates were incubated in the dark for 2 hours at 37°C. 100 μL of the solution was transferred to new wells and the colorimetric change in the solution was measured using a microtiter plate reader at 490 nm. Antibiofilm activity of the peptides and conventional antifungals was expressed as the biofilm-eradicating concentration 2 (BEC-2), which is defined as the minimum concentration of the peptides resulting in 50% reduction of the biofilm viability compared to the growth control.

[8] = tested on: Het-1A cell line; assay: cells
Procedure: (§3) The human normal vaginal epithelial cell line VK2/E6E7 (ATCC® CRL-2616™) and human normal esophagus epithelial cell line Het-1A (ATCC® CRL-2692™) were used for cytotoxicity testing. VK2/E6E7 cell line was grown in Keratinocyte-Serum Free medium (GIBCO-BRL 17005-042) supplemented with 0.1 ng/ml human recombinant EGF, 0.05 mg/ml bovine pituitary extract, and 44.1 mg/L calcium chloride. […] Cell viability was measured by using CellTiter 96® Aqueous Non-Radioactive Cell Proliferation Assay (Promega, USA) and the colourimetric changes were determined at 490 nm using a microplate reader. […] Results were recorded by averaging three repeated experiments and each experiment was performed in duplicate.

[9] = tested on: VK2/E6E7 cell line; assay: cells
Procedure: as §3

[10] = tested on: human erythrocytes; assay: Haemolytic assay; type: cell-based
Procedure: Freshly collected human blood with heparin was centrifuged to remove the buffy coat. The erythrocytes were washed three times with PBS, centrifuged for 10 min at 2000 rpm at 10°C, and resuspended in PBS to 4% (vol/vol). […] PBS and 0.1% Triton X-100 were used as agents to induce 0 and 100% haemolysis, respectively. Plates were incubated for 1 hour at 37°C and centrifuged at 2000 rpm for 10 min. The supernatant (100 μL) was transferred to a 96-well flat-bottomed polystyrene plate, and the release of haemoglobin was monitored by measuring the absorbance at 560 nm using a microplate reader. Results were repeated three times and each time in duplicate. The percentage of haemolysis was calculated using the following formula: [drawing 2] where Ap and A100 represent the absorbance of erythrocytes treated with peptide and 0.1% Triton X-100. A0 is the absorbance of erythrocytes without treatment.

| Compound | MIC [2] [µg/mL] | MIC [3] [µg/mL] | MIC [4] [µg/mL] | MIC [5] [µg/mL] | BEC-2 values [7] [mg/L] | Minimum Inhibitory Concentration (MIC) [2] [µg/mL] | Minimum Inhibitory Concentration (MIC) [3] [µg/mL] | Minimum Inhibitory Concentration (MIC) [4] [µg/mL] | Minimum Inhibitory Concentration (MIC) [5] [µg/mL] | % killing ([6]; SC5314, 4 h, 2) [%] | mean log decrease in viable cells ([6]; SC5314, 4 h, 2) [log CFU/mL] | IC50 ([8]; 24 h) [µg/mL] | IC50 ([8]; 48 h) [µg/mL] | IC50 ([8]; 72 h) [µg/mL] | IC50 ([9]; 24 h) [µg/mL] | IC50 ([9]; 48 h) [µg/mL] | IC50 ([9]; 72 h) [µg/mL] | further results |
| --- | --- | --- | --- | --- | --- | --- | --- | --- | --- | --- | --- | --- | --- | --- | --- | --- | --- | --- |
| OC(Cn1cncn1)(Cn1cncn1)c1ccc(F)cc1F [Fluconazole, reference compound] | 1 (≈ 3.27 µM) | 1 (≈ 3.27 µM) | 64 (≈ 209 µM) | 2 (≈ 6.53 µM) | >4 | – | – | – | – | – | – | – | – | – | – | – | – | MIC values, range ([1]; range for two C. albicans strains and C. parapsilosis): 1 to 2 µg/mL; reduction in yeast growth ([6]; 2× MIC): > 99.9%; BEC-2 values ([7]; listed as fluconazole): > 4 mg/L |
| C[C@@H]1[C@H](O)[C@@H](C)/C=C/C=C/C=C/C=C/C=C/C=C/C=C/[C@H](O[C@@H]2O[C@H](C)[C@@H](O)[C@H](N)[C@@H]2O)C[C@@H]2O[C@](O)(C[C@@H](O)C[C@@H](O)[C@H](O)CC[C@@H](O)C[C@@H](O)CC(=O)O[C@H]1C)C[C@H](O)[C@H]2C(=O)O [Amphotericin B, reference compound] | 1 (≈ 1.08 µM) | 1 (≈ 1.08 µM) | 1 (≈ 1.08 µM) | 0.5 (≈ 0.541 µM) | <1 | – | – | – | – | – | – | – | – | – | – | – | – | MIC values, range ([1]; range against four Candida strains (C. albicans and non-albicans species)): 0.5 to 1 µg/mL; % killing ([6]; 2× MIC, within 2 hours): > 99.99%; mean log reduction in viable cells ([6]; 2× MIC, within 2 hours, RPMI, 37°C, mean ± SD of three experiments): 5.44 ± 0.07 log CFU/mL; BEC-2 values ([7]; listed as amphotericin B): > 1 mg/L; IC50 ([8]; Homo sapiens, HET-1A, 24 h): 9.91 ± 3.35 µg/mL (≈ 10.7 µM); IC50 ([8]; Homo sapiens, HET-1A, 48 h): 7.78 ± 1.7 µg/mL (≈ 8.42 µM); IC50 ([8]; Homo sapiens, HET-1A, 72 h): 9.1 ± 0.98 µg/mL (≈ 9.85 µM); IC50 ([9]; Homo sapiens, 24 h): 8.13 ± 4.54 µg/mL (≈ 8.8 µM); IC50 ([9]; Homo sapiens, 48 h): 7.64 ± 2.95 µg/mL (≈ 8.27 µM); IC50 ([9]; Homo sapiens, 72 h): 15.3 ± 3.72 µg/mL (≈ 16.6 µM) |
| GVIDAAKKVVNVLKNLF-NH2 [Uperin 3.6, reference compound] | – | – | – | – | – | 64 | 128 | 64 | 128 | > 99.99 | 5.54 ± 0.13 | 17.60 ± 2.52 | 17.94 ± 1.96 | 23.23 ± 2.98 | 17.14 ± 4.32 | 23.59 ± 1.18 | 24.69 ± 6.02 | MIC values, range ([1]; 48 h): 64 to 128 µg/mL; Haemolytic activity HC10 [10]: > 256 mg/L; Haemolytic activity HC50 [10]: > 256 mg/L |
| GVIKAAKKVVKVLKKLF-NH2 [Upn-lys6] | – | – | – | – | – | 32 | 16 | 32 | 64 | > 99.99 | 5.56 ± 0.07 | 7.49 ± 1.77 | 7.92 ± 1.22 | 11.20 ± 0.86 | 9.07 ± 1.92 | 10.04 ± 3.27 | 9.87 ± 1.46 | MIC values, range ([1]; range against C. albicans and C. krusei): 32 to 64 µg/mL; Haemolytic activity HC10 ([10]; red cells of human, 1 h): >256 mg/L; Haemolytic activity HC50 ([10]; red cells of human, 1 h): >256 mg/L |

Reference: publication PMC4603303, “Activity of Novel Synthetic Peptides against Candida albicans” (Scientific Reports, 2015)
